Like-named read-outs stand apart in the source and are kept apart here.
Experiments:
[1] = test system: SARS-CoV-2 hCoV19/Japan/TY11-927/2021 strain; type: in vivo, Syrian hamsters; details: 3 days after start of living together
[2] = test system: SARS-CoV-2 Omicron Strain; test: Test Example 1-3: CPE suppression in Vero E6/TMPRSS2 cells, Omicron strains; type: cell-based
[3] = test system: SARS-CoV-2 hCoV19/Japan/TY11-927/2021 strain; type: in vivo, Syrian hamsters; details: 6 days after start
HCoV-OC43 = test: microbe, parasite or virus in culture; details: Betacoronavirus 1, OC43, MRC5, 42 h, read-out: EC90 (90% HCoV-OC43 viral replication inhibitory concentration)
[4] = test system: SARS-CoV-2 hCoV-19/Japan/TY38-873/2021; test: Test Example 10-2: CPE suppression in HEK293T/ACE2-TMPRSS2 cells (TY38-873); type: cell-based; details: Severe acute respiratory syndrome coronavirus 2, HEK-293T
[5] = test system: SARS-CoV-2 hCoV19/Japan/TY11-927/2021 strain; parameters: species or system Syrian hamsters; details: in vivo
in vitro = details: human
SARS-CoV Hanoi strain = test: microbe, parasite or virus in culture; details: Severe acute respiratory syndrome coronavirus, VeroE6/TMPRSS2, 72 h, read-out: EC50 (50% virus infected cell death inhibitory concentration)
HCoV-229E = test: Test Example 8: antiviral effect on HCoV-229E (MRC-5 cells, CellTiter-Glo); type: cell-based; details: Human coronavirus 229E, MRC5, read-out: EC50 (50% HCoV-229E infected cell death inhibitory concentration), 72 hours
Experimental: Test Example 8: Antiviral Effect on HCoV-229E
The test sample is preliminarily diluted with DMSO to an appropriate concentration, and a 3-fold serial dilution series is prepared and then dispensed into a 96-well plate and diluted in a maintenance medium (MEM, 2% FBS, penicillin-streptomycin).
MRC-5 cells (2×10^4 cells/well) suspended in a subculture medium (DMEM, 10% FBS, penicillin-streptomycin) are seeded in a 96-well plate a day before infection, and the next day, HCoV-229E (1000 TCID50/well) suspended in a maintenance medium (MEM, 2% FBS, penicillin-streptomycin) is infected for 1 hour. Thereafter, virus fluid is removed, a maintenance medium including a test reagent is added, and culturing is carried out in a CO2 incubator for 72 hours. Furthermore, in order to examine cytotoxicity of the test reagent, the same operation is performed in the absence of virus.
After returning the plate cultured for 72 hours to room temperature, CellTiter-Glo (registered trademark) 2.0 is dispensed into each well and mixed with a plate mixer. After a certain time interval, the luminescence signal (Lum) is measured with a plate reader.
When x is taken as the logarithmic value of the compound concentration and y as % Efficacy, the inhibition curve is approximated by the following Logistic regression equation, and the value of x when substituting 50(%) for y is calculated as EC50.
[formula] […]

[6] = test system: SARS-CoV-2 hCoV-19/Japan/TY7-501/2021; test: Test Example 9: influence of human serum and mouse serum on anti-SARS-CoV-2 activity; type: cell-based; details: Severe acute respiratory syndrome coronavirus 2, serum 100% condition by linear regression
SARS-CoV-2 [7] = test: microbe, parasite or virus in culture; type: cell-based; details: Severe acute respiratory syndrome coronavirus 2, HEK-293T; HEK293T/ACE2-TMPRSS2 cells; strains WK-521, QK002, TY7-501, TY8-612, TY11-927-P1
[8] = target: SARS-CoV-2 3CL Protease WT (Severe acute respiratory syndrome coronavirus 2 (2019-nCoV) (SARS-CoV-2), UniProt P0DTD1); test: biochemical; details: read-out: EC50 (table head; method calculates IC50)
[9] = target: Recombinant SARS-CoV-2 3CL Protease (Severe acute respiratory syndrome coronavirus 2 (2019-nCoV) (SARS-CoV-2), UniProt P0DTD1); test: Test Example 2: inhibitory activity test against SARS-CoV-2 3CL protease; type: biochemical; details: class symbols
SARS-CoV-2 [10] = test: microbe, parasite or virus in culture; type: cell-based; details: Severe acute respiratory syndrome coronavirus 2, 72 h; VeroE6/TMPRSS2 cells, 3 days; class symbols

Structure (SMILES)	IC50 [9]	EC50 (SARS-CoV-2 [10])	further results
Cn1cnc(Cn2c(=O)[nH]/c(=N\c3cc4cn(C)nc4cc3Cl)n(Cc3cc(F)c(F)cc3F)c2=O)n1			intranasal concha virus titer of uninfected hamster co-housed with treated infected hamster [1]: 2.89 log10 TCID50/mL; lung virus titer of uninfected hamster co-housed with treated infected hamster [1]: 2.97 log10 TCID50/mL; EC50 ([2]; Severe acute respiratory syndrome coronavirus 2, VeroE6/TMPRSS2, Omicron TY38-871 (BA.1.1)): 360 nM; EC50 ([2]; Severe acute respiratory syndrome coronavirus 2, VeroE6/TMPRSS2, Omicron TY38-873 (BA.1)): 290 nM; EC50 ([2]; Severe acute respiratory syndrome coronavirus 2, VeroE6/TMPRSS2, Omicron TY40-385 (BA.2)): 520 nM; EC50 ([2]; Severe acute respiratory syndrome coronavirus 2, VeroE6/TMPRSS2, Omicron TY41-686 (XE)): 440 nM; EC50 ([2]; Severe acute respiratory syndrome coronavirus 2, VeroE6/TMPRSS2, Omicron TY41-702 (BA.5)): 400 nM; EC50 ([2]; Severe acute respiratory syndrome coronavirus 2, VeroE6/TMPRSS2, Omicron TY41-703 (BA.4)): 220 nM; EC50 ([2]; Severe acute respiratory syndrome coronavirus 2, VeroE6/TMPRSS2, Omicron TY41-716 (BA.2.75)): 300 nM; lung virus titer of administered hamsters co-housed with infected hamster ([3]; 30 mg/kg oral twice a day for six days): 3.48 log10 PFU50/mL; lung virus titer of administered hamsters co-housed with infected hamster ([3]; 200 mg/kg oral twice a day for six days): a detection limit value or less; EC90 (HCoV-OC43): 74 nM; EC50 [4]: 83 nM; lung virus titer of uninfected hamsters co-housed with treated infected hamster [5]: the detection limit value or less; CC50 (in vitro): > 200000 nM; EC50 (SARS-CoV Hanoi strain): 209 nM; EC50 (HCoV-229E): 5530 nM; EC50 ([6]; human serum, read-out: human serum PA-EC50 (protein-adjusted EC50)): 3020 nM; EC50 ([6]; mouse serum, read-out: mouse serum PA-EC50 (protein-adjusted EC50)): 3930 nM; EC50 (SARS-CoV-2 [7]): 26 to 58 nM
Cc1cncc(-n2c(=O)nc(Nc3cc4cn(C)nc4cc3Cl)n(Cc3cc(F)c(F)c(F)c3)c2=O)c1			IC50 [8]: 16.7 nM
Cc1nc2cc(C)c(Nc3nc(=O)n(Cc4c[nH]cn4)c(=O)n3Cc3cc(F)c(F)c(F)c3)cc2s1 [Compound I-001]	1000 to 10000 nM		
Cc1cncc(-n2c(=O)nc(Nc3cc4cn(C)nc4cc3F)n(Cc3cc(F)c(F)c(F)c3)c2=O)c1 [Compound I-002]	< 100 nM	< 1000 nM	
Cc1cncc(-n2c(=O)nc(Nc3cc4cn(C)nc4cc3C)n(Cc3cc(F)c(F)c(F)c3)c2=O)c1 [Compound I-004]	< 100 nM	1000 to 10000 nM	
CC(=O)N1CC(n2cc3cc(Nc4nc(=O)n(-c5cncc6ccccc56)c(=O)n4Cc4cc(F)c(F)c(F)c4)c(Cl)cc3n2)C1 [Compound I-007]	< 100 nM		
Cn1cc2cc(Nc3nc(=O)n(-c4cncc(CO)c4)c(=O)n3Cc3cc(F)c(F)c(F)c3)ccc2n1 [Compound I-008]	100 to 1000 nM		
N#Cc1cc(Cn2c(Nc3ccc4nn(CC(F)F)cc4c3)nc(=O)n(-c3cncc4ccccc34)c2=O)ccc1F [Compound I-009]	< 100 nM	< 1000 nM	
Cc1cncc(-n2c(=O)nc(Nc3ccc4nn(CC(F)F)cc4c3)n(Cc3ccc(F)c(C#N)c3)c2=O)c1 [Compound I-011]	< 100 nM	< 1000 nM	
Cc1cc2nn(C)cc2cc1Nc1nc(=O)n(-c2cncc3ccccc23)c(=O)n1Cc1cc(F)c(F)c(F)c1 [Compound I-013]	< 100 nM	1000 to 10000 nM	
Cn1cc2cc(Nc3nc(=O)n(-c4cncc5ccccc45)c(=O)n3Cc3cc(F)c(F)c(F)c3)c(Cl)cc2n1 [Compound I-014]	< 100 nM	< 1000 nM	
Cn1cc2cc(Nc3nc(=O)n(-c4cncc5ccccc45)c(=O)n3Cc3ccc(F)c(C#N)c3)c(Cl)cc2n1 [Compound I-015]	< 100 nM	< 1000 nM	
Cn1cc2cc(Nc3nc(=O)n(-c4cncc5ccccc45)c(=O)n3Cc3cc(F)c(F)c(F)c3)ccc2n1 [Compound I-016]	< 100 nM	< 1000 nM	
Cc1cncc(-n2c(=O)nc(Nc3cc4cn(C)nc4cc3F)n(Cc3ccc(F)c(C#N)c3)c2=O)c1 [Compound I-018]	< 100 nM	< 1000 nM	
Cc1cncc(-n2c(=O)nc(Nc3cc4cn(C)nc4cc3C)n(Cc3ccc(F)c(C#N)c3)c2=O)c1 [Compound I-019]	< 100 nM	< 1000 nM	
O=c1nc(Nc2cc3cn(CCN4CCOCC4)nc3cc2Cl)n(Cc2cc(F)c(F)c(F)c2)c(=O)n1-c1cncc2ccccc12 [Compound I-020]	< 100 nM	1000 to 10000 nM	
Cn1cnc(Cn2c(=O)nc(Nc3cc4cn(C)nc4cc3Cl)n(Cc3cc(F)c(F)c(F)c3)c2=O)n1 [Compound I-021]	< 100 nM	< 1000 nM	
Cc1nc2cc(Cl)c(Nc3nc(=O)n(Cc4ncn(C)n4)c(=O)n3Cc3cc(F)c(F)c(F)c3)cc2n1C [Compound I-022]	< 100 nM	1000 to 10000 nM	
N#Cc1cc(Cn2c(Nc3cc4cn(C(F)F)nc4cc3Cl)nc(=O)n(-c3cncc4ccccc34)c2=O)ccc1F [Compound I-024]	< 100 nM	< 1000 nM	
Cn1cc2cc(Nc3nc(=O)n(-c4cncc5ccccc45)c(=O)n3Cc3ccc(F)c(C#N)c3)c(F)cc2n1 [Compound I-025]	< 100 nM	< 1000 nM	
Cc1cncc(-n2c(=O)nc(Nc3cc4cn(C(F)F)nc4cc3Cl)n(Cc3ccc(F)c(C#N)c3)c2=O)c1 [Compound I-026]	< 100 nM	< 1000 nM	
Cc1cc2nn(C)cc2cc1Nc1nc(=O)n(-c2cncc3ccccc23)c(=O)n1Cc1ccc(F)c(C#N)c1 [Compound I-027]	< 100 nM	< 1000 nM	
Cn1cnc(Cn2c(=O)nc(Nc3cc4cn(CCO)nc4cc3Cl)n(Cc3cc(F)c(F)c(F)c3)c2=O)n1 [Compound I-028]	< 100 nM	1000 to 10000 nM	
Cn1cnc(Cn2c(=O)nc(Nc3cc4cn(CC(F)F)nc4cc3Cl)n(Cc3cc(F)c(F)c(F)c3)c2=O)n1 [Compound I-029]	< 100 nM	< 1000 nM	
Cn1cnc(Cn2c(=O)nc(Nc3cc4cn(C(F)F)nc4cc3Cl)n(Cc3cc(F)c(F)c(F)c3)c2=O)n1 [Compound I-030]	< 100 nM	1000 to 10000 nM	
Cc1nc2cc(Cl)c(Nc3nc(=O)n(-c4cncc5ccccc45)c(=O)n3Cc3cc(F)c(F)c(F)c3)cc2n1C [Compound I-032]	< 100 nM	1000 to 10000 nM	
CC(=O)NCCn1cc2cc(Nc3nc(=O)n(-c4cncc5ccccc45)c(=O)n3Cc3cc(F)c(F)c(F)c3)c(Cl)cc2n1 [Compound I-033]	< 100 nM	1000 to 10000 nM	
O=c1nc(Nc2ccc3nn(CC(F)F)cc3c2)n(Cc2cc(F)c(F)c(F)c2)c(=O)n1-c1cncc2ccccc12 [Compound I-034]	< 100 nM	< 1000 nM	
